Measured values: patent US20240180872A1, “METHODS AND COMPOUNDS OF CANNABIDIOL, MELATONIN AND AKBA FOR TREATING PANCREATIC CANCER” (priority 2021, published 2024)

Tests used:
PANC-1 cell line = assay: Cytotoxicity assay (MTT, 72 hours, daily administration) in PANC-1; conditions: Homo sapiens, PANC-1, read-out: % VIABILITY ± S.D.
Method: Human pancreatic ductal adenocarcinoma (PANC-1 and MIAPaCa-2) cell lines were purchased by Sigma Aldrich (Milan, Italy) and cultured in DMEM high glucose medium (EuroClone, Milan, Italy) supplemented with 10% of fetal bovine serum (FBS), 2 mM L-glutamine, 100 IU/mL penicillin, 100 mg streptomycin and 1 mM sodium pyruvate. Cell lines were maintained at 37° C. with 5% CO2 and 95% of humidity.
3×10^4 cells/mL were seeded in 96-well plates in a final volume of 100 L/well. After one day of incubation, compounds or vehicles, alone or in combination, were added and six replicates were used for each treatment and all experiments were repeated three times. In all the experiments, the treatment was daily added, after washing with fresh medium. After 72 hours cell viability was investigated by adding 0.8 mg/mL of 3-[4,5-dimethylthiazol-2-yl]-2,5 diphenyl tetrazolium bromide (MTT) (Sigma Aldrich) to the media. After 3 h the supernatant was removed, and the pellet of salt crystals was solubilized with 100 μL/well of DMSO. The absorbance of the sample against a background control was measured at 570 nm using an ELISA reader microliter plate (BioTek Instruments, Winooski, VT, USA).
Cytotoxicity in PDAC cell lines: The effect of CBD, MLT and AKBA in reducing cell viability was evaluated at 72 hours, post daily administration, in PDAC cell lines. Cells were treated with different doses of CBD, MLT and AKBA (up to 1 mg) and percentage of cell viability was evaluated by the MTT assay. […] The compounds were administered daily for 72 hours, as in previous experiments at the desired doses. […] MTT assay was used to analyse the cell cytotoxicity.

[1] = system: U251 Glioblastoma cell line; assay: Cytotoxicity assay (MTT, 72 hours, daily administration) in U251; assay type: cell-based; conditions: Homo sapiens, U-251, read-out: % VIABILITY ± S.D.
From the text: The combinations were effective in other human tumor cell lines and we tested in glioblastoma cell line and endometrial cancer cell Additional tests include data obtained from two independent experiments, six wells for dose.

[2] = system: pancreatic adenocarcinoma associated genes; assay: TaqMan Array gene expression in MIAPaCa-2, normalized for GAPDH; assay type: cell-based, Human; conditions: Mia-PACA-2, 24 hs, CBD 3.8, MLT 200, AKBA 7.5 micrograms/ml
Method: Total RNA from untreated or CBD, MLT, AKBA alone and in combination treated cell lines was extracted using Rneasy Mini kit (Qiagen, Milan, Italy). One microgram of total RNA from each sample was subjected to reverse transcription in a total volume of 20 μL using the High-Capacity cDNA Archive Kit (Applied Biosystem, Foster City, […], USA) according to the instructions. cDNAs were analyzed by qRT-PCR performed using an IQ5 Multicolor Real time PCR Detection system. Quantitative real-time gene expression was performed with the TaqMan® Array Human Pancreatic Adenocarcinoma 96-well Plate, containing 92 assays to pancreatic adenocarcinoma associated genes and 4 assays to candidate endogenous control genes, was purchased (Thermo Fisher, Grand Island, NY, USA) and used to evaluate the treatments in modulating PDAC-related genes (Table 1). Measurement of different housekeeping genes (GAPDH; HPRT1; GUSB) on the samples was used to normalize mRNA content. The gene expression levels of treated cell lines were expressed as relative fold compared with untreated or vehicle-treated cells.
To elucidate the molecular events induced by CBD, MLT and AKBA alone and in combination, 92 genes involved in PDAC progression and aggressiveness were evaluated by Taqman Array. Both cell lines were treated with CBD, MLT and AKBA alone and in combination, and the molecular pathways of PDAC associated gene were evaluated.
Target mRNA levels were normalized for GAPDH expression.

[3] = cited from earlier work
[4] = normalized for GAPDH, Akt pathways
[5] = normalized for GAPDH, Akt-pathways
[6] = normalized for GAPDH, DNA repair
[7] = normalized for GAPDH, NfkB pathways
[8] = normalized for GAPDH, Ras pathways
[9] = normalized for GAPDH, TGF patways
[10] = normalized for GAPDH, TGF-patways
[11] = normalized for GAPDH, angiogenesis
[12] = normalized for GAPDH, apoptosis
[13] = normalized for GAPDH, cell cycle
[14] = normalized for GAPDH, inflammation
[15] = normalized for GAPDH, proliferation

## CC(=O)O[C@@H]1CC[C@@]2(C)[C@@H](CC[C@]3(C)[C@@H]2C(=O)C=C2[C@@H]4[C@@H](C)[C@H](C)CC[C@]4(C)CC[C@]23C)[C@@]1(C)C(=O)O [AKBA, (3R,4R,4aR,6aR,6bS,8aR,11R,12S,12aR,14aR,14bS)-3-acetyloxy-4,6a,6b,8a,11,12,14b-heptamethyl-14-oxo-1,2,3,4a,5,6,7,8,9,10,11,12,12a, 14a-tetradecahydropicene-4-carboxylic acid]
PANC-1 cell line
  viability at 5 µg/mL: 92.1 ± 5.3%
  viability at 7.5 µg/mL: 86.2 ± 6.6%
  viability at 10 µg/mL: 78.2 ± 5.9%
  viability at 15 µg/mL: 55.3 ± 4.4%
[1]; AKBA 5 micrograms/ml
  viability at 5 µg/mL: 100 ± 5.3%
[1]; AKBA 7.5 micrograms/ml
  viability at 7.5 µg/mL: 100 ± 6.6%
[1]; AKBA 10 micrograms/ml
  viability at 10 µg/mL: 100 ± 2.2%
[1]; AKBA 15 micrograms/ml
  viability at 15 µg/mL: 76.4 ± 4.2%
[2]; GAPDH is the normalizer
  GAPDH relative expression: 1.00
[2]; [4]
  PK3CB relative expression: 0.19
  PK3CD relative expression: 0.06
[2]; [5]
  AKT1 relative expression: 0.18
  AKT2 relative expression: 0.49
  AKT3 relative expression: 0.00
  IGF1 relative expression: 0.00
  PK3CA relative expression: 0.02
  PK3R1 relative expression: 0.04
[2]; [6]
  BRCA2 relative expression: 0.12
  MDM2 relative expression: 0.05
  TP53 relative expression: 0.35
[2]; normalized for GAPDH, Heat sock protein
  HSP90AA1 relative expression: 0.26
[2]; [7]
  NFKB1 relative expression: 0.12
  NFKB2 relative expression: 0.12
  REL relative expression: 0.09
  RELA relative expression: 0.11
  RELB relative expression: 0.13
  RHOA relative expression: 0.33
  RHOB relative expression: 0.06
[2]; [8]
  BRAF relative expression: 0.22
  E2F1 relative expression: 0.17
  E2F3 relative expression: 0.08
  E2F4 relative expression: 0.22
  EGF relative expression: 0.00
  EGFR relative expression: 0.22
  ELK1 relative expression: 0.13
  ERBB2 relative expression: 0.08
  GRB2 relative expression: 0.46
  HBEGF relative expression: 0.53
  KRAS relative expression: 0.11
  MAP2K1 relative expression: 0.12
  MAP2K2 relative expression: 0.12
  MAPK1 relative expression: 0.72
  MAPK3 relative expression: 0.00
  RAF1 relative expression: 0.10
  RB1 relative expression: 0.17
  SOS1 relative expression: 0.11
[2]; [9]
  TGFB2 relative expression: 0.10
  TGFB3 relative expression: 0.05
  TGFBR1 relative expression: 0.06
[2]; [10]
  SMAD2 relative expression: 0.04
  SMAD3 relative expression: 0.22
  SMAD4 relative expression: 0.10
  TGFA relative expression: 0.02
  TGFB1 relative expression: 0.13
  TGFBR2 relative expression: 0.09
[2]; [11]
  FIGF relative expression: 0.00
  VEGFA relative expression: 0.41
  VEGFB relative expression: 0.16
  VEGFC relative expression: 0.11
[2]; [12]
  BCL2L1 relative expression: 0.28
  BCL2 relative expression: 0.00
  BIRC5 relative expression: 0.26
[2]; [13]
  CCNA2 relative expression: 0.12
  CCNB1 relative expression: 0.24
  CCND1 relative expression: 0.12
  CCND2 relative expression: 0.00
  CCNE1 relative expression: 0.12
  CCNE2 relative expression: 0.10
  CDC42 relative expression: 0.02
  CDK2 relative expression: 0.12
  CDK4 relative expression: 0.30
  CDKN1A relative expression: 0.34
  CDKN1B relative expression: 0.12
  CDKN2A relative expression: 0.14
  CDKN2B relative expression: 0.24
  CDKN2C relative expression: 0.14
  CDKN2D relative expression: 0.06
[2]; [14]
  IL6 relative expression: 0.00
  JAK1 relative expression: 1.32
  JAK2 relative expression: 0.05
  JAK3 relative expression: 0.04
  STAT1 relative expression: 0.34
  STAT2 relative expression: 0.12
  STAT3 relative expression: 0.20
  STAT6 relative expression: 0.12
  STATSB relative expression: 0.22
[2]; normalized for GAPDH, invasion
  MMP1 relative expression: 0.02
  MMP2 relative expression: 0.24
  MMP3 relative expression: 0.00
  MMP7 relative expression: 0.04
  MMP9 relative expression: 0.04
  PTGS2 relative expression: 0.10
  RAC1 relative expression: 0.12
  RAC2 relative expression: 0.01
[2]; [15]
  KIT relative expression: 0.00
  NOTCH1 relative expression: 0.06
  SRC relative expression: 0.15
[3]; 1:2 solution of DMSO:PBS (pH 7.2)
  solubility: approximately 0.3 mg/ml
[3]; aqueous buffers
  solubility in aqueous buffers: sparingly soluble
